SMILES strings stand for the structures.

Protein c-Fos/Transcription factor Jun, sequence (P05412 whole entry): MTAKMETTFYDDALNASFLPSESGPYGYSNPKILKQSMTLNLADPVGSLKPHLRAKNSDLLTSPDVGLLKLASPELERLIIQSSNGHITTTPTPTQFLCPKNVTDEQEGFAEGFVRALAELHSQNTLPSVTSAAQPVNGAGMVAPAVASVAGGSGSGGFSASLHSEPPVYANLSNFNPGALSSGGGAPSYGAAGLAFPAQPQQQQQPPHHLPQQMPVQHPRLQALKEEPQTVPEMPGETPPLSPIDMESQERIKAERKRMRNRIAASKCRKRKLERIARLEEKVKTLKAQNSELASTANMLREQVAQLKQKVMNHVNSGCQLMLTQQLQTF
Protein c-Fos/Transcription factor Jun, sequence (P01100 whole entry): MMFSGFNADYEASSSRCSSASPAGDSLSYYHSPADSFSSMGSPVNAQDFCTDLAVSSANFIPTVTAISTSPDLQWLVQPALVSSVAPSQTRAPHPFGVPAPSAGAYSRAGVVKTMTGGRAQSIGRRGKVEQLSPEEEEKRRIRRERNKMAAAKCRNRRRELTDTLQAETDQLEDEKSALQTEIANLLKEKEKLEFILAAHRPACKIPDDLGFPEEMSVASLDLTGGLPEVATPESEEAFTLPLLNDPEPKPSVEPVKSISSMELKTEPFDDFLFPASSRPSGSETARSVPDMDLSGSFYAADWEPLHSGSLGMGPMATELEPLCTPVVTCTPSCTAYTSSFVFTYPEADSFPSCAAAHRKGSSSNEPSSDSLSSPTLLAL

The test has as its target Protein c-Fos/Transcription factor Jun (Homo sapiens, UniProt P05412+P01100). The test is described as follows: Inhibition of AP-1 (activator protein-1) mediated transcriptional activation in Jurkat T-cells.
As usually defined, the IC50 is the concentration that gives 50% inhibition. A lower IC50 goes with greater potency. As for `CCOC(=O)c1cnc(-c2ccncc2)nc1NN1C(=O)C=C(C)C1=O` [ethyl 4-(3-methyl-2,5-dioxo-2H-pyrrol-1(5H)-ylamino)-2-(pyridin-4-yl)pyrimidine-5-carboxylate], inhibition was half-maximal at 6000 nM (IC50). With `CCOC(=O)c1cnc(-c2cnc3ccccc3c2)nc1NN1C(=O)C=C(C)C1=O` [ethyl 4-(3-methyl-2,5-dioxo-2H-pyrrol-1(5H)-ylamino)-2-(quinolin-3-yl)pyrimidine-5-carboxylate] the figure was 6000 nM; with `CCOC(=O)c1cnc(-c2cccs2)nc1NN1C(=O)C=C(C)C1=O` [ethyl 4-(3-methyl-2,5-dioxo-2H-pyrrol-1(5H)-ylamino)-2-(thiophen-2-yl)pyrimidine-5-carboxylate], 20 nM; with `CCOC(=O)c1cnc(-c2ccsc2)nc1NN1C(=O)C=C(C)C1=O` [ethyl 4-(3-methyl-2,5-dioxo-2H-pyrrol-1(5H)-ylamino)-2-(thiophen-3-yl)pyrimidine-5-carboxylate], 100 nM. Regarding `CCOC(=O)c1cnc(Oc2ccccc2)nc1NN1C(=O)C=C(C)C1=O` [ethyl 4-(3-methyl-2,5-dioxo-2H-pyrrol-1(5H)-ylamino)-2-phenoxypyrimidine-5-carboxylate], the IC50 was determined as 15000 nM. This IC50 lies about 150-fold higher than the previous one.

On to `CCOC(=O)c1cnc(-c2cccs2)nc1N(C)N1C(=O)C=C(C)C1=O` [ethyl 4-(methyl(3-methyl-2,5-dioxo-2H-pyrrol-1(5H)-yl)amino)-2-(thiophen-2-yl)pyrimidine-5-carboxylate], for which it took 1000 nM to reach half-maximal inhibition (IC50).

Take `CCOC(=O)c1cnc(-c2ccccc2)nc1N(C)N1C(=O)C=C(C)C1=O` [ethyl 4-(methyl(3-methyl-2,5-dioxo-2H-pyrrol-1(5H)-yl)amino)-2-phenylpyrimidine-5-carboxylate]: the half-maximal inhibitory concentration (IC50) worked out at 2000 nM. This IC50 is about 2-fold higher than that of the compound before.

The values above are taken from BindingDB's records for doi:10.1016/s0960-894x(00)00312-7 (Signal Pharmaceuticals, 2000).
